ChEMBL document CHEMBL1201862, “PubChem BioAssay data set” (2004)
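Protocol summary: plate cells (96-well), add compound at 5 concentrations, incubate 48 h, interpolate endpoints linearly. GI50 = concentration required for 50% inhibition of growth.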 The source made the active and inactive calls. Cut-off read from the data, not from the text of the source: active = GI50 up to about 1.1 µM and inactive = higher.

Assays:
Experiment in all cases: growth of human tumour cells (NCI), 48 h
786-0 = tested on: 786-0
A498 = tested on: A498
A549 = tested on: A549
ACHN = tested on: ACHN
BT-549 = tested on: BT-549
CAKI-1 = tested on: CAKI-1
CCRF-CEM = tested on: CCRF-CEM
COLO 205 = tested on: COLO 205
DU-145 = tested on: DU-145
EKVX = tested on: EKVX
HCC 2998 = tested on: HCC 2998
HCT-116 = tested on: HCT-116
HCT-15 = tested on: HCT-15
HL-60 = tested on: HL-60
HOP-62 = tested on: HOP-62
HT-29 = tested on: HT-29
Hs-578T = tested on: Hs-578T
IGROV-1 = tested on: IGROV-1
K562 = tested on: K562
KM12 = tested on: KM12
LOX IMVI = tested on: LOX IMVI
M14 = tested on: M14
MCF7 = tested on: MCF7
MDA-MB-231 = tested on: MDA-MB-231
MDA-MB-435 = tested on: MDA-MB-435
MDA-N = tested on: MDA-N
MOLT-4 = tested on: MOLT-4
Malme-3M = tested on: Malme-3M
NCI-H226 = tested on: NCI-H226
NCI-H23 = tested on: NCI-H23
NCI-H460 = tested on: NCI-H460
NCI-H522 = tested on: NCI-H522
NCI/ADR-RES = tested on: NCI/ADR-RES
OVCAR-3 = tested on: OVCAR-3
OVCAR-5 = tested on: OVCAR-5
OVCAR-8 = tested on: OVCAR-8
PC-3 = tested on: PC-3
RPMI-8226 = tested on: RPMI-8226
RXF 393 = tested on: RXF 393
SF-268 = tested on: SF-268
SF-295 = tested on: SF-295
SF-539 = tested on: SF-539
SK-MEL-28 = tested on: SK-MEL-28
SK-MEL-2 = tested on: SK-MEL-2
SK-MEL-5 = tested on: SK-MEL-5
SK-OV-3 = tested on: SK-OV-3
SN12C = tested on: SN12C
SNB-19 = tested on: SNB-19
SNB-75 = tested on: SNB-75
SR = tested on: SR
SW-620 = tested on: SW-620
T47D = tested on: T47D
TK-10 = tested on: TK-10
U-251 = tested on: U-251
UACC-257 = tested on: UACC-257
UACC-62 = tested on: UACC-62
UO-31 = tested on: UO-31

## COc1ccc2cc(CNCCCCCCNCc3ccc4cc(OC)ccc4c3)ccc2c1
786-0
  GI50: 902 nM (active)
A498
  GI50: 1580 nM (inactive)
A549
  GI50: 1860 nM (inactive)
ACHN
  GI50: 1570 nM (inactive)
BT-549
  GI50: 1720 nM (inactive)
CAKI-1
  GI50: 1380 nM (inactive)
CCRF-CEM
  GI50: 153 nM (active)
COLO 205
  GI50: 154 nM (active)
DU-145
  GI50: 1580 nM (inactive)
EKVX
  GI50: 1390 nM (inactive)
HCC 2998
  GI50: 132 nM (active)
HCT-116
  GI50: 176 nM (active)
HCT-15
  GI50: 406 nM
HL-60
  GI50: 181 nM (active)
HOP-62
  GI50: 1640 nM (inactive)
HT-29
  GI50: 186 nM (active)
Hs-578T
  GI50: 1750 nM (inactive)
IGROV-1
  GI50: 1570 nM (inactive)
K562
  GI50: 89.7 nM (active)
KM12
  GI50: 221 nM (active)
LOX IMVI
  GI50: 181 nM (active)
M14
  GI50: 169 nM (active)
MCF7
  GI50: 319 nM (active)
MDA-MB-231
  GI50: 465 nM (active)
MDA-MB-435
  GI50: 204 nM (active)
MDA-N
  GI50: 183 nM (active)
MOLT-4
  GI50: 205 nM (active)
Malme-3M
  GI50: 1050 nM (active)
NCI-H226
  GI50: 1800 nM (inactive)
NCI-H23
  GI50: 2110 nM (inactive)
NCI-H460
  GI50: 255 nM (active)
NCI-H522
  GI50: 640 nM (active)
NCI/ADR-RES
  GI50: 1440 nM (inactive)
OVCAR-3
  GI50: 575 nM (active)
OVCAR-5
  GI50: 885 nM (active)
OVCAR-8
  GI50: 531 nM (active)
PC-3
  GI50: 471 nM (active)
RPMI-8226
  GI50: 208 nM (active)
RXF 393
  GI50: 1520 nM (inactive)
SF-268
  GI50: 565 nM (active)
SF-295
  GI50: 486 nM (active)
SF-539
  GI50: 1510 nM (inactive)
SK-MEL-28
  GI50: 471 nM (active)
SK-MEL-2
  GI50: 1240 nM (inactive)
SK-MEL-5
  GI50: 1330 nM (inactive)
SK-OV-3
  GI50: 1850 nM (inactive)
SN12C
  GI50: 1330 nM (inactive)
SNB-19
  GI50: 785 nM (active)
SNB-75
  GI50: 815 nM (active)
SR
  GI50: 184 nM (active)
SW-620
  GI50: 182 nM (active)
T47D
  GI50: 452 nM (active)
TK-10
  GI50: 1800 nM (inactive)
U-251
  GI50: 231 nM (active)
UACC-257
  GI50: 1830 nM (inactive)
UACC-62
  GI50: 1460 nM (inactive)
UO-31
  GI50: 1630 nM (inactive)
